In BindingDB's records for doi:10.1021/jm00049a010 (University of Arizona, 1994):

Experiment: Binding affinity at delta opioid receptor in guinea pig brain by [3H]c[D-Pen2, p-Cl-Phe4, D-Pen5]-enkephalin displacement.

Structure (SMILES)	IC50 [µM]
CC[C@H](C)[C@@H]1NC(=O)[C@H](CCCN=C(N)N)NC(=O)[C@H](CCCN=C(N)N)NC(=O)[C@H](NC(=O)[C@H](Cc2ccccc2)NC(=O)CNC(=O)CNC(=O)[C@@H](N)Cc2ccc(O)cc2)CSSC[C@@H](C(N)=O)NC(=O)[C@@H]2CCCN2C(=O)[C@H](CCCN=C(N)N)NC1=O	1
CC[C@H](C)[C@@H]1NC(=O)[C@H](CCCNC(=N)N)NC(=O)[C@H](CCCNC(=N)N)NC(=O)[C@@H](NC(=O)[C@H](Cc2ccccc2)NC(=O)CNC(=O)CNC(=O)[C@@H](N)Cc2ccc(O)cc2)CSSC[C@@H](C(N)=O)NC(=O)[C@@H]2CCCN2C(=O)[C@H](CCCNC(=N)N)NC1=O	1.74
CC[C@H](C)[C@@H]1NC(=O)[C@H](CCCN=C(N)N)NC(=O)[C@H](CCCN=C(N)N)NC(=O)[C@@H](NC(=O)[C@H](Cc2ccccc2)NC(=O)CNC(=O)CNC(=O)[C@@H](N)Cc2ccc(O)cc2)C(C)(C)SSC(C)(C)[C@@H](C(N)=O)NC(=O)[C@@H]2CCCN2C(=O)[C@H](CCCN=C(N)N)NC1=O	0.245
CC[C@H](C)[C@@H]1NC(=O)[C@H](CCCN=C(N)N)NC(=O)[C@H](CCCN=C(N)N)NC(=O)[C@@H](NC(=O)[C@H](Cc2ccccc2)NC(=O)CNC(=O)CNC(=O)[C@@H](N)Cc2ccc(O)cc2)CSSC[C@H](C(N)=O)NC(=O)[C@@H]2CCCN2C(=O)[C@H](CCCN=C(N)N)NC1=O	0.014
CC[C@H](C)[C@@H]1NC(=O)[C@H](CCCN=C(N)N)NC(=O)[C@H](CCCN=C(N)N)NC(=O)[C@@H](NC(=O)[C@H](Cc2ccccc2)NC(=O)CNC(=O)CNC(=O)[C@@H](N)Cc2ccc(O)cc2)CSSC(C)(C)[C@@H](C(N)=O)NC(=O)[C@@H]2CCCN2C(=O)[C@H](CCCN=C(N)N)NC1=O [Tyr-Gly-Gly-Phe-D-Cys-Arg-Arg-Ile-Arg-Pro-Cys-NH2]	0.016
CC[C@H](C)[C@@H]1NC(=O)[C@H](CCCN=C(N)N)NC(=O)[C@H](CCCN=C(N)N)NC(=O)[C@H](NC(=O)[C@H](Cc2ccccc2)NC(=O)CNC(=O)CNC(=O)[C@@H](N)Cc2ccc(O)cc2)CSSC[C@H](C(N)=O)NC(=O)[C@@H]2CCCN2C(=O)[C@H](CCCN=C(N)N)NC1=O [Tyr-Gly-Gly-Phe-D-Cys-Arg-Arg-Ile-Arg-Pro-D-Cys-NH2]	1.03
CC[C@H](C)[C@@H]1NC(=O)[C@H](CCCN=C(N)N)NC(=O)[C@H](CCCN=C(N)N)NC(=O)[C@H](NC(=O)[C@H](Cc2ccccc2)NC(=O)CNC(=O)CNC(=O)[C@@H](N)Cc2ccc(O)cc2)CSSC(C)(C)[C@H](C(N)=O)NC(=O)[C@@H]2CCCN2C(=O)[C@H](CCCN=C(N)N)NC1=O [Tyr-Gly-Gly-Phe-D-Cys-Arg-Arg-Ile-Arg-Pro-D-Pen-NH2]	1.37
CC[C@H](C)[C@@H]1NC(=O)[C@H](CCCN=C(N)N)NC(=O)[C@H](CCCN=C(N)N)NC(=O)[C@@H](NC(=O)[C@H](Cc2ccccc2)NC(=O)CNC(=O)CNC(=O)[C@@H](N)Cc2ccc(O)cc2)CSSC(C)(C)[C@H](C(N)=O)NC(=O)[C@@H]2CCCN2C(=O)[C@H](CCCN=C(N)N)NC1=O [Tyr-Gly-Gly-Phe-D-Cys-Arg-Arg-Ile-Arg-Pro-Pen-NH2]	0.319
CC[C@H](C)[C@@H]1NC(=O)[C@H](CCCN=C(N)N)NC(=O)[C@H](CCCN=C(N)N)NC(=O)[C@@H](NC(=O)[C@H](Cc2ccccc2)NC(=O)CNC(=O)CNC(=O)[C@@H](N)Cc2ccc(O)cc2)C(C)(C)SSC[C@@H](C(N)=O)NC(=O)[C@@H]2CCCN2C(=O)[C@H](CCCN=C(N)N)NC1=O [Tyr-Gly-Gly-Phe-D-Pen-Arg-Arg-Ile-Arg-Pro-Cys-NH2]	0.242
CC[C@H](C)[C@@H]1NC(=O)[C@H](CCCN=C(N)N)NC(=O)[C@H](CCCN=C(N)N)NC(=O)[C@H](NC(=O)[C@H](Cc2ccccc2)NC(=O)CNC(=O)CNC(=O)[C@@H](N)Cc2ccc(O)cc2)C(C)(C)SSC[C@H](C(N)=O)NC(=O)[C@@H]2CCCN2C(=O)[C@H](CCCN=C(N)N)NC1=O [Tyr-Gly-Gly-Phe-D-Pen-Arg-Arg-Ile-Arg-Pro-D-Cys-NH2]	0.39
CC[C@H](C)[C@@H]1NC(=O)[C@H](CCCN=C(N)N)NC(=O)[C@H](CCCN=C(N)N)NC(=O)[C@H](NC(=O)[C@H](Cc2ccccc2)NC(=O)CNC(=O)CNC(=O)[C@@H](N)Cc2ccc(O)cc2)C(C)(C)SSC(C)(C)[C@H](C(N)=O)NC(=O)[C@@H]2CCCN2C(=O)[C@H](CCCN=C(N)N)NC1=O [Tyr-Gly-Gly-Phe-D-Pen-Arg-Arg-Ile-Arg-Pro-D-Pen-NH2]	1.91
CC[C@H](C)[C@@H]1NC(=O)[C@H](CCCN=C(N)N)NC(=O)[C@H](CCCN=C(N)N)NC(=O)[C@H](NC(=O)[C@H](Cc2ccccc2)NC(=O)CNC(=O)CNC(=O)[C@@H](N)Cc2ccc(O)cc2)C(C)(C)SSC[C@@H](C(N)=O)NC(=O)[C@@H]2CCCN2C(=O)[C@H](CCCN=C(N)N)NC1=O [Tyr-Gly-Gly-Phe-D-Pen-Arg-Arg-Ile-Arg-Pro-Pen-NH2]	2
CC[C@H](C)[C@@H]1NC(=O)[C@H](CCCN=C(N)N)NC(=O)[C@H](CCCN=C(N)N)NC(=O)[C@H](NC(=O)[C@H](Cc2ccccc2)NC(=O)CNC(=O)CNC(=O)[C@@H](N)Cc2ccc(O)cc2)C(C)(C)SSC(C)(C)[C@@H](C(N)=O)NC(=O)[C@@H]2CCCN2C(=O)[C@H](CCCN=C(N)N)NC1=O [Tyr-Gly-Gly-Phe-Pen-Arg-Arg-Ile-Arg-Pro-Cys-NH2]	1.36
CC[C@H](C)[C@@H]1NC(=O)[C@H](CCCN=C(N)N)NC(=O)[C@H](CCCN=C(N)N)NC(=O)[C@@H](NC(=O)[C@H](Cc2ccccc2)NC(=O)CNC(=O)CNC(=O)[C@@H](N)Cc2ccc(O)cc2)C(C)(C)SSC(C)(C)[C@H](C(N)=O)NC(=O)[C@@H]2CCCN2C(=O)[C@H](CCCN=C(N)N)NC1=O [Tyr-Gly-Gly-Phe-Pen-Arg-Arg-Ile-Arg-Pro-D-Cys-NH2]	0.717
CC[C@H](C)[C@@H]1NC(=O)[C@H](CCCN=C(N)N)NC(=O)[C@H](CCCN=C(N)N)NC(=O)[C@@H](NC(=O)[C@H](Cc2ccccc2)NC(=O)CNC(=O)CNC(=O)[C@@H](N)Cc2ccc(O)cc2)C(C)(C)SSC[C@H](C(N)=O)NC(=O)[C@@H]2CCCN2C(=O)[C@H](CCCN=C(N)N)NC1=O [Tyr-Gly-Gly-Phe-Pen-Arg-Arg-Ile-Arg-Pro-D-Pen-NH2]	0.232
